Assay results reported in publication PMC10112268, “Inhibition of Human Coronaviruses by Combinations of Host-Targeted and Direct-Acting Antivirals” (Antimicrobial Agents and Chemotherapy, 2023).
Read-outs that look alike come from different tables or passages of the source.

How the values were obtained:
[1] = system: SARS-CoV-2 isolate MAD6 (Wuhan-Hu-1 strain); test: Virus yield inhibition in infected Calu3 2B4 cells, plaque assay on Vero E6; type: cell-based; conditions: for IC50 / SARS-CoV-2 isolate MAD6 titers: 24 hpi; for IC50: read-out: IC50, virus yield; for SARS-CoV-2 titers: at 100 μM, Fig. 3, no drug 3.±0.1 × 10^5; for SARS-CoV-2 isolate MAD6 titers: no drug 3.4 ± 1 × 10^5
[2] = system: HCoV-229E-GFP; test: microbe, parasite or virus in culture; type: cell-based; conditions: for IC50: Human coronavirus 229E
[3] = system: HCoV-OC43; test: microbe, parasite or virus in culture; type: cell-based
[4] = system: SARS-CoV-2 isolate 39896362_AG (omicron strain); test: microbe, parasite or virus in culture; type: cell-based; conditions: for IC50: Severe acute respiratory syndrome coronavirus 2, Vero C1008, omicron strain, AV from 1 h before adsorption, read-out: IC50, virus yield; for IC50 / SARS-CoV-2 isolate 39896362_AG titers: Fig. 1; for SARS-CoV-2 isolate 39896362_AG titers: no drug 1 ± 0.1 × 10^5
[5] = system: HCoV-229E-GFP; type: cell-based; conditions: no drug 3.5 ± 0.6 × 10^6
[6] = system: HCoV-OC43; type: cell-based; conditions: no drug 3.2 ± 0.2 × 10^6
[7] = system: SARS-CoV-2 (MAD6); test: Drug combination (synergy) study, virus yield in Calu3 2B4, CompuSyn; type: cell-based; conditions: for SARS-CoV-2 titers: no drug 3.2 ± 0.2 × 10^5; for average DRI: for the named drug over its combinations, at Fa = 0.5 to 0.95
[8] = in vitro; conditions: human, CC50 (MTT assay), Huh-7
[9] = in vitro; conditions: human, CC50 (MTT assay), HCT-8
[10] = in vitro; conditions: African green monkey
[11] = in vitro; conditions: human
[12] = system: HCoV-229E, HCoV-OC43, and SARS-CoV-2; test: Antiviral assays, summary over all tested HCoVs; type: cell-based, human coronaviruses
[13] = system: HCoV-229E-GFP; test: Time of addition assay; type: cell-based; conditions: for IC50: Human coronavirus 229E, 24 hpi
[14] = system: HCoV-OC43; test: Time of addition assay; type: cell-based; conditions: for IC50: 48 hpi
[15] = system: SARS-CoV-2 isolate MAD6 (Wuhan-Hu-1 strain); test: Time of addition assay; type: cell-based; conditions: for IC50: 24 hpi, read-out: IC50, SARS-CoV-2 production
[16] = system: HCoV-229E-GFP; test: Direct virucidal effect on virus particles; conditions: 10^5 PFU, 1 h at room temperature; LG 0 to 300 μM, VPA 0 to 300 mM
[17] = system: HCoV-OC43; test: Direct virucidal effect on virus particles; conditions: 10^5 PFU, 1 h at room temperature; LG 0 to 300 μM, VPA 0 to 300 mM
[18] = system: SARS-CoV-2; test: Direct virucidal effect on virus particles; conditions: 10^5 PFU, 1 h at room temperature; LG 0 to 300 μM, VPA 0 to 300 mM
[19] = system: TGEV; test: Antiviral effect against TGEV in WSL or ST cells, plaque assay on ST; type: cell-based, swine coronavirus TGEV; conditions: LG in WSL cells, VPA in ST cells
Procedure: Figure S2. […] The inhibitory effect […]
of LG or VPA was assayed on triplicate cultures of TGEV-infected WSL (wild swine macrophage cell line) or ST (swine testis) cells, respectively. After 1 h-pre-incubation with AVs, triplicate cultures were infected with the corresponding virus, at a MOI of 2 PFU/cell, in a reduced volume of medium containing the AV, for 2h, virus inoculum removed and cells washed twice with medium, before the addition of drug-containing fresh medium (supplemented with 2% FBS). Cultures were then incubated for 24 h at 37 °C; total virus (intracellular and extracellular) production was evaluated by plaque assay on triplicate cultures of ST cells. Left y-axis represents infectious virus progeny at 24 hpi and right y-axis, cell viability determined by MTT assay of each corresponding cell line. IC50 values and SI values […]
[TGEV titers (PFU/ml): 1.1±0.1 x 108 in the absence of the drugs, […]
(1 picture or pasted object on this page, not shown here)

[20] = Severe acute respiratory syndrome coronavirus 2, Calu-3 2B4, specificity experiment (Fig. 3), Calu3 2B4
[21] = at 100 μM, Fig. 3, no drug 4 ± 0.9 × 10^6
[22] = at 100 μM, Fig. 3, no drug 1.8 ± 0.9 × 10^6
[23] = Betacoronavirus 1, OC43, Huh-7, read-out: IC50, virus yield, specificity experiment (Fig. 3), Huh-7, 48 hpi
[24] = Huh-7, read-out: IC50, virus yield, Huh-7, AV from 1 h before adsorption, 24 hpi, Fig. 1
[25] = Betacoronavirus 1, OC43, Huh-7, read-out: IC50, virus yield, Huh-7, AV from 1 h before adsorption, 48 hpi, Fig. 1

O=C(O[C@@H]1Cc2c(O)cc(O)cc2O[C@@H]1c1ccc(O)c(O)c1)c1cc(O)c(O)c(O)c1 [ECG, epicatechin gallate]
IC50 [1, 20]: 0.0501 mM | SARS-CoV-2 titers [1]: 6 ± 0.3 × 10^4 PFU/mL

O=C(O)c1cc(O)c(O)c(O)c1 [G, gallic acid]
inhibition of viral multiplication at nontoxic concentrations ([2]; Huh-7, Fig. 3): Neither G nor PG inhibited viral multiplication | HCoV-229E-GFP titers [2, 21]: 3.1 ± 0.2 × 10^6 PFU/mL | inhibition of viral multiplication at nontoxic concentrations ([3]; Huh-7, Fig. 3): Neither G nor PG inhibited viral multiplication | HCoV-OC43 titers [3, 22]: 1.2 ± 0.2 × 10^6 PFU/mL | IC50 [1, 20]: 0.0405 mM | SARS-CoV-2 titers [1]: 7.5 ± 0.2 × 10^4 PFU/mL

CCCCCCCCOC(=O)c1cc(O)c(O)c(O)c1 [OG, octyl gallate]
IC50 ([2]; Huh-7, read-out: IC50, virus yield, specificity experiment (Fig. 3), Huh-7, 24 hpi): 3.9 µM | HCoV-229E-GFP titers [2, 21]: 1.4 ± 0.5 × 10^3 PFU/mL | IC50 [3, 23]: 2.56 µM | HCoV-OC43 titers [3, 22]: 5 ± 0.01 × 10^1 PFU/mL

CCCOC(=O)c1cc(O)c(O)c(O)c1 [PG, propyl gallate]
inhibition of viral multiplication at nontoxic concentrations ([2]; Huh-7, Fig. 3): Neither G nor PG inhibited viral multiplication | HCoV-229E-GFP titers [2, 21]: 2.2 ± 0.3 × 10^6 PFU/mL | IC50 [3, 23]: 22.5 µM | inhibition of viral multiplication at nontoxic concentrations ([3]; Huh-7, Fig. 3): Neither G nor PG inhibited viral multiplication | HCoV-OC43 titers [3, 22]: 1.2 ± 0.3 × 10^6 PFU/mL

CCC(CC)COC(=O)[C@H](C)N[P@](=O)(OC[C@H]1O[C@@](C#N)(c2ccc3c(N)ncnn23)[C@H](O)[C@@H]1O)Oc1ccccc1 [RDV, remdesivir]
selectivity index (SI=CC50/IC50) [2]: 1732 | IC50 [2, 24]: 0.0144 ± 0.0041 µM | HCoV-229E-GFP titers ([2]; at RDV 500 nM, 24 hpi, no drug 3 ± 0.5 × 10^6, Fig. 1): 6 ± 0.1 × 10^2 PFU/mL | IC50 [3, 25]: 0.046 µM | selectivity index (SI=CC50/IC50) ([3]; HCoV-OC43, Huh-7): 435 | HCoV-OC43 titers ([3]; at RDV 500 nM, 48 hpi, no drug 3.1 ± 0.9 × 10^6, Fig. 1): 6 ± 0.1 × 10^2 PFU/mL | selectivity index (SI=CC50/IC50) ([1]; SARS-CoV-2 Wuhan-Hu-1, Calu3 2B4): 102 | IC50 ([1]; Severe acute respiratory syndrome coronavirus 2, Calu-3 2B4, Calu3 2B4, Wuhan-Hu-1 strain, AV from 1 h before adsorption, Fig. 1): 0.00107 mM | SARS-CoV-2 isolate MAD6 titers ([1]; at RDV 20 μM, Fig. 1): 6 ± 0.3 × 10^2 PFU/mL | selectivity index (SI=CC50/IC50) ([4]; SARS-CoV-2 omicron, Vero E6): 52 | IC50 ([4]; Vero E6): 0.00163 ± 0.0002 mM | SARS-CoV-2 isolate 39896362_AG titers ([4]; at RDV 32 μM): 5 ± 0.01 × 10^1 PFU/mL | HCoV-229E-GFP titers ([5]; at 160 nM RDV): 4 ± 0.2 × 10^2 PFU/mL | HCoV-OC43 titers ([6]; at 320 nM RDV): 1.6 ± 0.2 × 10^4 PFU/mL | SARS-CoV-2 titers ([7]; at 8 μM RDV): 1.7 ± 0.2 × 10^3 PFU/mL | average DRI [7]: 4.31 | CC50 ([8]; 24 h cell incubation with AV): 0.025 mM | CC50 ([8]; 48 h cell incubation with AV): 0.02 mM | CC50 ([9]; 24 h cell incubation with AV): 0.043 mM | CC50 ([9]; 48 h cell incubation with AV): 0.038 mM | CC50 [10]: 0.085 mM | CC50 [11]: 0.109 mM

CCCC(CCC)C(=O)O [VPA, valproic acid]
IC50 [2, 24]: 9480 ± 1100 µM | HCoV-229E-GFP titers ([2]; at VPA 40 mM, 24 hpi, no drug 3 ± 0.5 × 10^6, Fig. 1): 2.5 ± 0.3 × 10^2 PFU/mL | IC50 [3, 25]: 9330 ± 2100 µM | HCoV-OC43 titers ([3]; at VPA 40 mM, 48 hpi, no drug 3.1 ± 0.9 × 10^6, Fig. 1): 1.2 ± 0.1 × 10^2 PFU/mL | SARS-CoV-2 isolate MAD6 titers ([1]; at VPA 100 mM, Fig. 1): 5 ± 0.01 × 10^1 PFU/mL | IC50 ([4]; Vero E6): 5.15 ± 0.3 mM | SARS-CoV-2 isolate 39896362_AG titers ([4]; at VPA 128 mM): 1 ± 0.1 × 10^2 PFU/mL | IC50 ([12]; average over all tested HCoVs, read-out: average IC50 value): 7.2 mM | IC50 ([12]; range over tested HCoVs, read-out: IC50 values, range over HCoVs): 5 to 9 mM | IC50 ([13]; read-out: IC50, HCoV-229E-GFP production, AV added 0 hpi): 9.64 mM | IC50 ([13]; read-out: IC50, HCoV-229E-GFP production, AV added 2 hpi): 9.49 mM | IC50 ([13]; read-out: IC50, HCoV-229E-GFP production, AV added −3 hpi (1 h before adsorption)): 9.48 mM | HCoV-229E-GFP average titers ([13]; at 40 mM VPA, average of addition times, no drug 4 ± 0.6 × 10^6): 6 ± 2 × 10^2 PFU/mL | IC50 ([14]; Betacoronavirus 1, OC43, read-out: IC50, HCoV-OC43 production, AV added 0 hpi): 9.69 mM | IC50 ([14]; Betacoronavirus 1, OC43, read-out: IC50, HCoV-OC43 production, AV added 2 hpi): 9.49 mM | IC50 ([14]; Betacoronavirus 1, OC43, read-out: IC50, HCoV-OC43 production, AV added −3 hpi (1 h before adsorption)): 9.87 mM | HCoV-OC43 average titers ([14]; at 40 mM VPA, average of addition times, no drug 3.5 ± 0.5 × 10^6): 5 ± 0.01 × 10^1 PFU/mL | IC50 ([15]; Severe acute respiratory syndrome coronavirus 2, AV added 0 hpi): 5.02 mM | IC50 ([15]; Severe acute respiratory syndrome coronavirus 2, AV added 2 hpi): 5.04 mM | IC50 ([15]; Severe acute respiratory syndrome coronavirus 2, AV added −2 hpi (1 h before adsorption)): 4.99 mM | SARS-CoV-2 average titers ([15]; at 100 mM VPA, average of addition times, no drug 3.4 ± 0.2 × 10^5): 5 ± 0.01 × 10^1 PFU/mL | HCoV-229E-GFP titers ([5]; at 32 mM VPA): 5 ± 0.3 × 10^2 PFU/mL | HCoV-OC43 titers ([6]; at 32 mM VPA): 5 ± 0.01 × 10^1 PFU/mL | SARS-CoV-2 titers ([7]; at 16 mM VPA): 4 ± 0.1 × 10^4 PFU/mL | average DRI [7]: 5.19 | direct virucidal effect (change in virus titers) [16]: No decrease in virus titers | direct virucidal effect (change in virus titers) [17]: No decrease in virus titers | direct virucidal effect (change in virus titers) [18]: No decrease in virus titers | inhibition of TGEV multiplication [19]: inhibited the multiplication | CC50 ([8]; 24 h cell incubation with AV): 70 mM | CC50 ([8]; 48 h cell incubation with AV): 66 mM | CC50 ([9]; 24 h cell incubation with AV): 95.7 mM | CC50 ([9]; 48 h cell incubation with AV): 76.2 mM
